{"source": "patent US6919359B2", "about": "“Azabicyclic-substituted-heteroaryl compounds for the treatment of disease” (Pfizer Inc, priority 2001, dated 2005)", "origin": "cited, not measured here", "key": {"[1]": {"target": "α7 nAChR (Homo sapiens, UniProt P36544)", "sequence (P36544 23-502)": "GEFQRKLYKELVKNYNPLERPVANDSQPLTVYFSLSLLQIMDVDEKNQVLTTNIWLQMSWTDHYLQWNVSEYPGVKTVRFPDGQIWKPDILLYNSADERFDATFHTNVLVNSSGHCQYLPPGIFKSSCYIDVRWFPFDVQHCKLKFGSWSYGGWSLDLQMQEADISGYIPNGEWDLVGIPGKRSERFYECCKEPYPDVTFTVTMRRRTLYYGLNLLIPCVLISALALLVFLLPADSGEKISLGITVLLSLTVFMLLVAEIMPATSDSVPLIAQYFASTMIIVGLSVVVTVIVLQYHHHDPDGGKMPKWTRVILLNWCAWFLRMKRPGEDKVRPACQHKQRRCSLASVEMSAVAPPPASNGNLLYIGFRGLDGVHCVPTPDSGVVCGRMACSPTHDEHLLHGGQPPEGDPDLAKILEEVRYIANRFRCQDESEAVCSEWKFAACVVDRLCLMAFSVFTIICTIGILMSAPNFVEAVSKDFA"}, "[2]": {"target": "T1, 5HT3R (Homo sapiens, UniProt P46098)", "T1 sequence (P46098 24-478)": "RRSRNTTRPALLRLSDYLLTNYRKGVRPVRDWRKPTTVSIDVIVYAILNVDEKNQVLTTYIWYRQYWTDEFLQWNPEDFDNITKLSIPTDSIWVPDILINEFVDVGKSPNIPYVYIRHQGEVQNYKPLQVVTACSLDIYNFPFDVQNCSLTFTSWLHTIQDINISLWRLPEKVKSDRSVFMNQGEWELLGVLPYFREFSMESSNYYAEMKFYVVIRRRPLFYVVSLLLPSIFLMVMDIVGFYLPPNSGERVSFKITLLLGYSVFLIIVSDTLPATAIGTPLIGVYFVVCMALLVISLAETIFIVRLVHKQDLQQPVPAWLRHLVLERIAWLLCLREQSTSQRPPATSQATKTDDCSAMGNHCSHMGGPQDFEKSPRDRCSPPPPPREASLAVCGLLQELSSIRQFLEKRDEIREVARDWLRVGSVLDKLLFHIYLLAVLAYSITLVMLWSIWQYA"}}, "data": [{"smiles": "Cc1nccn1CC1CCc2c(c3ccccc3n2C)C1=O", "note": "(centres unmarked) [Ondansetron]", "values": [{"measurement": "activity at the α7 nAChR", "setting": "[1]", "value": "little activity"}]}, {"smiles": "COc1ccc(/C=C2\\CCCN=C2c2cccnc2)c(OC)c1", "note": "[GTS-21]", "values": [{"measurement": "activity at the 5HT3R", "setting": "[2]", "value": "little activity"}]}]}
